Patent US20240285571A1, “METHODS OF TREATING BONE INFECTIONS” (MICROBION CORPORATION, priority 2020, published 2024)
Read-outs that look alike come from different tables or passages of the source.

Assays:
[1] = system: MDR P. aeruginosa; assay: MIC against CF isolates (Example 7, Table 18); assay type: cell-based; settings: Pseudomonas aeruginosa, Multi-drug resistant
[2] = system: Achromobacter spp.; assay: MIC against CF isolates (Example 7, Table 18); assay type: cell-based; settings: strain AX4, A. xylosoxidans
[3] = system: K. pneumoniae; assay: Broth microdilution MIC (Example 5); assay type: cell-based, Klebsiella pneumoniae; settings: Klebsiella pneumoniae
Experimental: (§1) Test and Comparator Agents: The test agents were stored at room temperature until assayed. […] The stock solutions were allowed to stand for at least 1 hr prior to use to auto-sterilize.
(§2) TestMedia: Test media were prepared and stored in accordance with guidelines from CLSI (4, 6, 7).
Broth Microdilution MC Testing (Aerobic Bacteria and Yeast): The broth microdilution assay method employed for the susceptibility testing of aerobic bacteria (excluding N. gonorrhoeae which was evaluated by agar dilution) and yeast essentially followed the procedures described by CLSI (3, 4, 7, 8) and employed automated liquid handlers to conduct serial dilutions and liquid transfers. […] These would become the ‘mother plates’ from which ‘daughter’ or test plates would be prepared. The drugs (300 μL at 40× the desired top concentration in the test plates) were dispensed into the appropriate well in Column 1 of the mother plates. The Biomek 2000 was used to make serial two-fold dilutions through Column 11 in the “mother plate”. The wells of Column 12 contained no drug and ultimately served as the organism growth control wells.
The daughter plates were prepared using the Biomek FX which transferred 5 μL of drug solution from each well of a mother plate to the corresponding well of the correct daughter plate in a single step.
A standardized inoculum of each organism was prepared per CLSI methods (3, 7). Isolated colonies of each test isolate were picked from the primary plate and a suspension was prepared to equal a 0.5 McFarland turbidity standard. Standardized suspensions were then diluted […] (1:100 for yeast, 1:20 for bacteria). After dilution, the inoculum suspensions were then transferred to compartments of sterile reservoirs divided by length (Beckman Coulter), and the Biomek 2000 was used to inoculate all plates. Daughter plates were placed on the Biomek 2000 in reverse orientation so that plates were inoculated from low to high drug concentration.
The Biomek 2000 delivered 10 μL of standardized inoculum into each well of the appropriate daughter plate for an additional 1:20 dilution.
Plates were stacked 4 high, covered with a lid on the top plate, placed into plastic bags, and incubated at 35° C. for approximately 24-48 hr for all yeast isolates and 16-24 hr for aerobic bacteria. Plates were viewed from the bottom using a plate viewer. […] MIC endpoints for the test agents and control compounds were read per CLSI criteria (3, 7).

[4] = system: E. cloacae; assay: Broth microdilution MIC (Example 5); assay type: cell-based, Enterobacter cloacae; settings: Enterobacter cloacae, ATCCBAA2468
Experimental: as §1, §2
Broth Microdilution MC Testing (Aerobic Bacteria and Yeast): The broth microdilution assay method employed for the susceptibility testing of aerobic bacteria (excluding N. gonorrhoeae which was evaluated by agar dilution) and yeast essentially followed the procedures described by CLSI (3, 4, 7, 8) and employed automated liquid handlers to conduct serial dilutions and liquid transfers. […] These would become the ‘mother plates’ from which ‘daughter’ or test plates would be prepared. The drugs (300 μL at 40× the desired top concentration in the test plates) were dispensed into the appropriate well in Column 1 of the mother plates. The Biomek 2000 was used to make serial two-fold dilutions through Column 11 in the “mother plate”. […]
(§3) Plates were stacked 4 high, covered with a lid on the top plate, placed into plastic bags, and incubated at 35° C. for approximately 24-48 hr for all yeast isolates and 16-24 hr for aerobic bacteria. […] MIC endpoints for the test agents and control compounds were read per CLSI criteria (3, 7).

[5] = system: S. agalactiae; assay: Broth microdilution MIC (Example 5); assay type: cell-based; settings: Streptococcus agalactiae
Procedure, shortened: (§4)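 Colonies were suspended to a 0.5 McFarland standard, diluted in test media, and dispensed into plates holding two-fold serial drug dilutions.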

[6] = system: S. pyogenes; assay: Broth microdilution MIC (Example 5); assay type: cell-based; settings: Streptococcus pyogenes
Procedure, shortened: as §4

[7] = system: Enterobacteriaceae; assay: MIC summary across Enterobacteriaceae (Example 5); assay type: cell-based, E. coli, K. pneumoniae, Enterobacter cloacae; settings: all evaluated Enterobacteriaceae isolates (Table 3)
Experimental: (§5) Test and Comparator Agents: The test agents were stored at room temperature until assayed. All test agents were suspended and diluted in 100% dimethylsulfoxide (DMSO), and were ultimately tested at a final concentration of 0.06-64 μg/mL. The stock solutions were allowed to stand for at least 1 hr prior to use to auto-sterilize.
(§6) TestMedia: Test media were prepared and stored in accordance with guidelines from CLSI (4, 6, 7). […] Neisseria gonorrhoeae were evaluated by agar dilution using agar consisting of GC medium base (BD; Lot No. 4274618) supplemented with 1% IsoVitaleX (BD; Lot No. 5246843).
(§7) Broth Microdilution MC Testing (Aerobic Bacteria and Yeast): The broth microdilution assay method employed for the susceptibility testing of aerobic bacteria (excluding N. gonorrhoeae which was evaluated by agar dilution) and yeast essentially followed the procedures described by CLSI (3, 4, 7, 8) and employed automated liquid handlers to conduct serial dilutions and liquid transfers. […]
as §3

[8] = system: beta-hemolytic streptococci; assay: MIC summary, beta-hemolytic streptococci (Example 5); assay type: cell-based, S. pyogenes, S. agalactiae; settings: beta-hemolytic streptococci (Table 6); read-out: MIC values across isolates
Experimental: as §5, §6, §7, §3

[9] = system: Pseudomonas aeruginosa biofilms (MR14, AG14); assay: Activity against biofilms (Example 7); assay type: cell-based; settings: MR14, MDR CF-isolate of P. aeruginosa; at 25 ng/mL
[10] = system: MABSC / M. abscessus biofilms; assay: Activity against biofilms (Example 7); assay type: cell-based, Mycobacterium abscessus complex; settings: AMT0130-8 MABSC CF-isolate
[11] = system: Achromobacter spp. biofilm; assay: Activity against biofilms (Example 7); assay type: cell-based; settings: tested up to 250 μg/mL

SMILES: NCC[C@H](O)C(=O)N[C@@H]1C[C@H](N)[C@@H](O[C@H]2O[C@H](CN)[C@@H](O)[C@H](O)[C@H]2O)[C@H](O)[C@H]1O[C@H]1O[C@H](CO)[C@@H](O)[C@H](N)[C@H]1O [Amikacin]
- MIC ([1]; strain AGR14, P. aeruginosa): > 64 µg/mL
- MIC ([1]; strain MR14, P. aeruginosa): > 64 µg/mL
- MIC [2]: > 64 µg/mL

SMILES: OCC(S)CS.[Bi] (centres unmarked) [MB-2B, bismuth-2,3-dimercaptopropanol]
- MIC ([3]; K. pneumoniae MMX 4622, KPC-2): 16 µg/mL
- MIC ([3]; K. pneumoniae MMX 4623, KPC-2): 32 µg/mL
- MIC ([3]; K. pneumoniae MMX 4653, KPC-3): 16 µg/mL
- MIC ([3]; K. pneumoniae MMX 4683, KPC-2): 8 µg/mL
- MIC ([3]; K. pneumoniae MMX 4684, ESBL, read-out: MIC): 32 µg/mL
- MIC ([3]; K. pneumoniae MMX 4685, ESBL, read-out: MIC): 8 µg/mL
- MIC ([3]; K. pneumoniae MMX 4694, KPC-3): 8 µg/mL
- MIC ([3]; K. pneumoniae MMX 5979, NDM-1): 16 µg/mL
- MIC [4]: 32 µg/mL
- MIC ([5]; S. agalactiae MMX 3741, ERYR CCR): 4 µg/mL
- MIC ([5]; S. agalactiae MMX 3743, ERYR CCR): 4 µg/mL
- MIC ([5]; S. agalactiae MMX 4077, ERYR CCR): 4 µg/mL
- MIC ([5]; S. agalactiae MMX 4079, ERYR CCR PenR MEMR): 8 µg/mL
- MIC ([6]; S. pyogenes MMX 3068, EryR): 2 µg/mL
- MIC ([6]; S. pyogenes MMX 3820, ERYR CLIR): 1 µg/mL
- MIC ([6]; S. pyogenes MMX 3919, ERYR): 0.25 µg/mL
- MIC ([6]; S. pyogenes MMX 3929, ERYR CCR): 1 µg/mL
- MIC ([6]; S. pyogenes MMX 5091, ERYR CCR): 1 µg/mL
- MIC [7]: 2 to 32 µg/mL
- MIC [8]: 0.25 to 8 µg/mL

SMILES: CC(S)C(C)S.[Bi] (centres unmarked) [MB-6, bismuth-2,3-butanedithiol]
- Reduction in biofilm cell viability [9]: 2 logs
- Reductions in biofilm cell viability [10]: only very modest reductions
- Reduction in viable biofilm cells [11]: 5 log
